Active and inactive are the calls of the source. No cut-off for these calls is given here.
Assays:
[1] = molecular target: Receptor-type tyrosine-protein kinase FLT3 (Homo sapiens) (UniProt P36888)
Description: Inhibition of FLT3 by HTRF assay

[2] = molecular target: Mast/stem cell growth factor receptor Kit (Homo sapiens, UniProt P10721); experiment: Inhibition of KIT by HTRF assay
[3] = molecular target: T1, Receptor-type tyrosine-protein kinase FLT3 (Homo sapiens, UniProt P36888)
T1 sequence (P36888 whole entry): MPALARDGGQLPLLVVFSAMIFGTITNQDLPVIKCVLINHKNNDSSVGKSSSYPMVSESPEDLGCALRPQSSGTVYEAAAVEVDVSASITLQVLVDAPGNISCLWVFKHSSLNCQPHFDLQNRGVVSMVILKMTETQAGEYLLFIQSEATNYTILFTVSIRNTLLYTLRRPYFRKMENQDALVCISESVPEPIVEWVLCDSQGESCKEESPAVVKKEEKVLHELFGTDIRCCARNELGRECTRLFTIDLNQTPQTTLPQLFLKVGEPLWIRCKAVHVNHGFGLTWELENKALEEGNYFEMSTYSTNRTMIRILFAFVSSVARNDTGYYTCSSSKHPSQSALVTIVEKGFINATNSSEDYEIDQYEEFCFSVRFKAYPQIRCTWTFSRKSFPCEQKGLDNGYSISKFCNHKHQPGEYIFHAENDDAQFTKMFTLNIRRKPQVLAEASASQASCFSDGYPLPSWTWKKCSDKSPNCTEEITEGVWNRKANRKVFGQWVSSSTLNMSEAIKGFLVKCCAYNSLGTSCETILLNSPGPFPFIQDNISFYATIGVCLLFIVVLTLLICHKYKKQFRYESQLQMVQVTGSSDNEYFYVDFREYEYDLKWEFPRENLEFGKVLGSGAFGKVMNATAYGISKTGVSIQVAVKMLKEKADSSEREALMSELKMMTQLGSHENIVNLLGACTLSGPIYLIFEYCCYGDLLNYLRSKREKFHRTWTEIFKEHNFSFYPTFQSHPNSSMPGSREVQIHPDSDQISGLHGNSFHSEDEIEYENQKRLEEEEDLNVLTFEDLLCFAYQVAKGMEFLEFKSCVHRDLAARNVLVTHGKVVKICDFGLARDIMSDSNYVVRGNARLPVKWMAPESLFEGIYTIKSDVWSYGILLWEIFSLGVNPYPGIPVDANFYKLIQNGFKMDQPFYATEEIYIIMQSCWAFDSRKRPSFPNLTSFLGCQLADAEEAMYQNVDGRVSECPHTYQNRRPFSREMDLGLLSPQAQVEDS
Description: Inhibition of FLT3 by HTRF assay

[4] = molecular target: T2, Vascular endothelial growth factor receptor 2 (Homo sapiens, UniProt P35968)
Description: Inhibition of KDR by HTRF assay

HT-1080 = experiment: Inhibition of tumor growth in human HT1080 cells xenografted in SCID/Beige mouse at 30 mg/kg/day, bid relative to control; details: HT-1080, read-out: TGI
[5] = molecular target: Platelet-derived growth factor receptor beta (Homo sapiens, UniProt P09619); experiment: Inhibition of PDGFRbeta by HTRF assay
[6] = molecular target: Tyrosine-protein kinase Lyn (Homo sapiens, UniProt P07948); experiment: Inhibition of LYN by HTRF assay
[7] = molecular target: Macrophage colony-stimulating factor 1 receptor (Homo sapiens, UniProt P07333); experiment: Inhibition of CSF1R by HTRF assay
[8] = Oral bioavailability in mouse at 10 mg/kg; assay type: ADME, organism-based; details: in vivo
Mus musculus [9] = experiment: Inhibition of estradiol-induced uterine edema in orally dosed BALB/c mouse edema model; assay type: functional; details: po
[10] = Clearance in mouse at 3 mg/kg, iv; assay type: ADME, organism-based; design: dose 3 mg/kg, route intravenous; details: in vivo
Angiopoietin-1 receptor = Angiopoietin-1 receptor (Homo sapiens, UniProt Q02763); experiment: Inhibition of TIE2 by HTRF assay
[11] = molecular target: Proto-oncogene tyrosine-protein kinase Src (Homo sapiens, UniProt P12931); experiment: Inhibition of SRC by HTRF assay
[12] = molecular target: Voltage-gated inwardly rectifying potassium channel KCNH2 (Homo sapiens, UniProt Q12809)
Description: Displacement of [3H]dofetilide from human ERG expressed in HEK293 cells

[13] = Half life in mouse at 3 mg/kg, iv; assay type: ADME, organism-based; design: dose 3 mg/kg, route intravenous; details: in vivo
[14] = Volume of distribution in mouse at 3 mg/kg, iv; assay type: ADME, organism-based; design: dose 3 mg/kg, route intravenous; details: in vivo
[15] = molecular target: Vascular endothelial growth factor receptor 1 (Homo sapiens, UniProt P17948); experiment: Inhibition of FLT1 by HTRF assay
[16] = AUC in mouse at 10 mg/kg, po; assay type: ADME, organism-based; design: dose 10 mg/kg, route oral; details: plasma
[17] = molecular target: Tyrosine-protein kinase HCK (Homo sapiens, UniProt P08631); experiment: Inhibition of HCK by HTRF assay
[18] = molecular target: T2, Vascular endothelial growth factor receptor 2; experiment: Inhibition of human KDR phosphorylation in mouse NIH3T3 cells by ELISA; assay type: cell-based
[19] = Clearance in mouse at 1 mg/kg, iv; assay type: ADME, organism-based; design: dose 1 mg/kg, route intravenous; details: in vivo
[20] = Volume of distribution in mouse at 1 mg/kg, iv; assay type: ADME, organism-based; design: dose 1 mg/kg, route intravenous; details: in vivo
Mus musculus [21] = experiment: Inhibition of estradiol-induced uterine edema in orally dosed BALB/c mouse edema model at 3 mg/kg, po; assay type: functional
[22] = Half life in mouse at 1 mg/kg, iv; assay type: ADME, organism-based; design: dose 1 mg/kg, route intravenous; details: in vivo

T2 sequence (P35968 whole entry): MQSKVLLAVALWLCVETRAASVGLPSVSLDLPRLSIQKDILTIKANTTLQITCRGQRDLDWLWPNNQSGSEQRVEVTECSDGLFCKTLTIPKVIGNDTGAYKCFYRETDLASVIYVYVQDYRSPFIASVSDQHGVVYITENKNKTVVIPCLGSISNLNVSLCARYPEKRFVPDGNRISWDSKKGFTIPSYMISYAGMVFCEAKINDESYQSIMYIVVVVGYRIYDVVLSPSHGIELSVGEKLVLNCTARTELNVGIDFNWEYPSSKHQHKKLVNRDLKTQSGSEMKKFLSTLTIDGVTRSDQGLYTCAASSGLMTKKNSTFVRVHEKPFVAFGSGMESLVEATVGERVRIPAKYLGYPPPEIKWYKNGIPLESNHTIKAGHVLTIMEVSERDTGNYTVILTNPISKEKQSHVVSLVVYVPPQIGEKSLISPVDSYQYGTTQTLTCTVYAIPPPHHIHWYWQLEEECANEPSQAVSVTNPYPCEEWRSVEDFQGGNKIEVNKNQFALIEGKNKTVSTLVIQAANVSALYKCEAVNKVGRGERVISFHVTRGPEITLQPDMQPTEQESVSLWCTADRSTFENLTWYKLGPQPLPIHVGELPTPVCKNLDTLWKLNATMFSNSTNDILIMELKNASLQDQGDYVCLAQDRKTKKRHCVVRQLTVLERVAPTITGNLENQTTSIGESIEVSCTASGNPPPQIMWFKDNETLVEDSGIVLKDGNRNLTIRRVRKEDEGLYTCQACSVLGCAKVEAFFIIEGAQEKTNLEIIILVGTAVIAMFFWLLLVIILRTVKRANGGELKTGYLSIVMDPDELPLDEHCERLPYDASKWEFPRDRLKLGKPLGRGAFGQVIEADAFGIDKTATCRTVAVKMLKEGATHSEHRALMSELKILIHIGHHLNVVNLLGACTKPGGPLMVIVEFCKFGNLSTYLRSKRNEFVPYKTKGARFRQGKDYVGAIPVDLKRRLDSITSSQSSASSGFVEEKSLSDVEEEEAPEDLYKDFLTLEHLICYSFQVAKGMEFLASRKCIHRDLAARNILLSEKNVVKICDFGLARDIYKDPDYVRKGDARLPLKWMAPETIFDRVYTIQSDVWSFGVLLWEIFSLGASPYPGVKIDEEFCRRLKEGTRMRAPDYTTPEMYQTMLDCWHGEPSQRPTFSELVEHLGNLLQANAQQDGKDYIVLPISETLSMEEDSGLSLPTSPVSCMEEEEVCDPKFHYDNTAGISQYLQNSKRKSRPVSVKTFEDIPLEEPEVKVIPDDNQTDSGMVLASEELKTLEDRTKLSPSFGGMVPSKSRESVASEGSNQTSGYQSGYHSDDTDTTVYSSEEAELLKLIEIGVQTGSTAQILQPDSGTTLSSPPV
Mast/stem cell growth factor receptor Kit, sequence (P10721 whole entry): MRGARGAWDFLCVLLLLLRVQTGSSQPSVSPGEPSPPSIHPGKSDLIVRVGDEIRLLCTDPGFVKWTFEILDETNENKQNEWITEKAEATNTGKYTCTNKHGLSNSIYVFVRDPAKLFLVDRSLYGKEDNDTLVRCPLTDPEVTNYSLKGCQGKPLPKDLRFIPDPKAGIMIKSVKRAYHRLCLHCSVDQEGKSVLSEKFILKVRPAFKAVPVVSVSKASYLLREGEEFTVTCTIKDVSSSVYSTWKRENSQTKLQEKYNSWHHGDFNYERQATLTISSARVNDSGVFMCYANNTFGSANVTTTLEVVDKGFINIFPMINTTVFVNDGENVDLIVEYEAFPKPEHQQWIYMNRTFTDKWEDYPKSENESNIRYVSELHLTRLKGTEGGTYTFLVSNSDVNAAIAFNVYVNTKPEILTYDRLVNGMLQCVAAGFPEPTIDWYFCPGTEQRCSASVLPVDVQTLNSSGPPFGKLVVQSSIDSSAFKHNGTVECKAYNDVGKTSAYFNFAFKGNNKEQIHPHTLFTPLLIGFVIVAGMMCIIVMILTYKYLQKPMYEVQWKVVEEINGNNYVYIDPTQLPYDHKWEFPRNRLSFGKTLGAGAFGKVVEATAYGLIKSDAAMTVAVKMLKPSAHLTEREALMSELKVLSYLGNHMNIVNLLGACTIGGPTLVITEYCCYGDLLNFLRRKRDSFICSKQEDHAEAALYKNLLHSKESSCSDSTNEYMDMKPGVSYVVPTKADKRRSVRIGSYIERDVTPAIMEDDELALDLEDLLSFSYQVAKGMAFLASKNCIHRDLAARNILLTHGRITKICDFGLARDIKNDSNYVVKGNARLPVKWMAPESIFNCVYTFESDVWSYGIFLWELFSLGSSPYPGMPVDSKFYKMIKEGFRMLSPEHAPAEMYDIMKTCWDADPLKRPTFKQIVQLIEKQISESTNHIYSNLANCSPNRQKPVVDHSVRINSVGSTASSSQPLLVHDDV
Platelet-derived growth factor receptor beta, sequence (P09619 whole entry): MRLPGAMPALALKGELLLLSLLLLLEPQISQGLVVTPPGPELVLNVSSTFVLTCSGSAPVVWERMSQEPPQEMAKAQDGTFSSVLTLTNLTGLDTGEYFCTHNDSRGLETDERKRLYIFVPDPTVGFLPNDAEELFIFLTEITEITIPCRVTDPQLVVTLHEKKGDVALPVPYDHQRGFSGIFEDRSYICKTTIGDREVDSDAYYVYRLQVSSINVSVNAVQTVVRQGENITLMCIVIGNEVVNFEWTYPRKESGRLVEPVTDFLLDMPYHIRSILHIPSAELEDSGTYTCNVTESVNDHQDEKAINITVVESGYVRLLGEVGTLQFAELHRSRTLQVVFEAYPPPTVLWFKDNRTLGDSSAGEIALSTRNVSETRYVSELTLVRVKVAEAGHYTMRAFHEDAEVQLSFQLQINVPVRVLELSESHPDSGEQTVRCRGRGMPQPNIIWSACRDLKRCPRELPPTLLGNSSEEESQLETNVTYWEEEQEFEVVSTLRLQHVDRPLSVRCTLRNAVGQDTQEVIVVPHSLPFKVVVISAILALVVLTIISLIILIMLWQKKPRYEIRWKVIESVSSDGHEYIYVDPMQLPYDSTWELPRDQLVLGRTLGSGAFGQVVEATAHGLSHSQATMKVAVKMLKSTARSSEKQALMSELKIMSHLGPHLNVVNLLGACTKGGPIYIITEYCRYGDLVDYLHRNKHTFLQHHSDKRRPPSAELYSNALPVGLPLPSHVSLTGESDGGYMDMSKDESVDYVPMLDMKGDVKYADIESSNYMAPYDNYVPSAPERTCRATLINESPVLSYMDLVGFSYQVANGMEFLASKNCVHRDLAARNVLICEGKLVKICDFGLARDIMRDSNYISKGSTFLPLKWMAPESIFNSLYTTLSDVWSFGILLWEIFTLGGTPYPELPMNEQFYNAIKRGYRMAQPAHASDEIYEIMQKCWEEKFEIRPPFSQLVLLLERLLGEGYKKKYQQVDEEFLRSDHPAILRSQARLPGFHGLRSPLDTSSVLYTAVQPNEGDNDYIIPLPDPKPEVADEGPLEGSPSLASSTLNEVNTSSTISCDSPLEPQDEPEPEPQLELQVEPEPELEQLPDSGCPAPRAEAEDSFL
Tyrosine-protein kinase HCK, sequence (P08631 whole entry): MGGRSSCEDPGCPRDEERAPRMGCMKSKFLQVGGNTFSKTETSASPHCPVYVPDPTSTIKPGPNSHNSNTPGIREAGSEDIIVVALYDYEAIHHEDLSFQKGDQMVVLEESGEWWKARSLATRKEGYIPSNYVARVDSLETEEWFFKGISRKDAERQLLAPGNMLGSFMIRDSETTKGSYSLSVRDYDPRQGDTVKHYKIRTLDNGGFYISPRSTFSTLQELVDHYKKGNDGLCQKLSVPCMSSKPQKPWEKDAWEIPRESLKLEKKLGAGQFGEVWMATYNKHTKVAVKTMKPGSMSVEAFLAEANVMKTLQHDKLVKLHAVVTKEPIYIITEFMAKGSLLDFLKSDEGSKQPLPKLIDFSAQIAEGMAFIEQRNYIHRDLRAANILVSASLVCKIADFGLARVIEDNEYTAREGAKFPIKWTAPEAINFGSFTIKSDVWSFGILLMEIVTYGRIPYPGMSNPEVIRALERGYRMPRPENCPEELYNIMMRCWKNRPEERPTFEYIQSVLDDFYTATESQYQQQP
Tyrosine-protein kinase Lyn, sequence (P07948 whole entry): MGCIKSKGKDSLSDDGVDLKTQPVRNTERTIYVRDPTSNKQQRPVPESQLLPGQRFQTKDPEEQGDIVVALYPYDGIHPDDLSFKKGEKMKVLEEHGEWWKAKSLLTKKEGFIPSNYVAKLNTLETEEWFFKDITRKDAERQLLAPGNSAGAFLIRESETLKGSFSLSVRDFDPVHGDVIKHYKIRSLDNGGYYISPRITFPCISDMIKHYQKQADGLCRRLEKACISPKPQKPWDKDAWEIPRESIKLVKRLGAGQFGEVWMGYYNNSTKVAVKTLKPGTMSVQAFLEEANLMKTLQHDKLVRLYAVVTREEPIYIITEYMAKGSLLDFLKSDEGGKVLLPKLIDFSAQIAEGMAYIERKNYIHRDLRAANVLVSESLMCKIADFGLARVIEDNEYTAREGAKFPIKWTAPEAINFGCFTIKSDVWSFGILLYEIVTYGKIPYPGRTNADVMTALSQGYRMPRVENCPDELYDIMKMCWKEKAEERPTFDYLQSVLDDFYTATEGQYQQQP
Proto-oncogene tyrosine-protein kinase Src, sequence (P12931 2-536 limits assumed): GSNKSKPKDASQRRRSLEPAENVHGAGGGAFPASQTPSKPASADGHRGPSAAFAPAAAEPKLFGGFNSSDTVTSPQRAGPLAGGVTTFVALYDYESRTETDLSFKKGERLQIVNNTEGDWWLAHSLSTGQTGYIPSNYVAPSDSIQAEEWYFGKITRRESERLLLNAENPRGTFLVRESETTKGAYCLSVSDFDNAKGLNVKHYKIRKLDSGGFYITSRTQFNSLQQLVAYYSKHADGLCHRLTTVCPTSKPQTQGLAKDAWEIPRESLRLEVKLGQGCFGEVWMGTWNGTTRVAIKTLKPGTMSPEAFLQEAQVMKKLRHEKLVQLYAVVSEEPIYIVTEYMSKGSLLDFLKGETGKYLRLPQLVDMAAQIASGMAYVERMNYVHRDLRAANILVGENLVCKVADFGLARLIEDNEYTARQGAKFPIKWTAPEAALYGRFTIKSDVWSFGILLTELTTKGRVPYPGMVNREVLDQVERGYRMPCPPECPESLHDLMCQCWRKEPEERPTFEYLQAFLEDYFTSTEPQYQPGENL

| Compound | IC50 [2] [nM] | IC50 [3] [nM] | other results |
| --- | --- | --- | --- |
| COc1ccc(NC(=O)Nc2ccc(-c3cccc4onc(N)c34)cc2)cc1 | 5 |  | Activity [1]: inactive |
| Nc1noc2cccc(-c3ccc(NC(=O)Nc4ccc(C(F)(F)F)cc4)cc3)c12 | 27 |  | Activity [1]: inactive |
| Nc1nsc2cccc(-c3ccc(NC(=O)Nc4cccc(C(F)(F)F)c4)cc3)c12 | 2630 | 1260 | IC50 [4]: 247 nM |
| COc1ccc(-c2ccc(NC(=O)Nc3cc(C)ccc3F)cc2)c2c(N)noc12 | 43 | 36 | inhibition in vivo at 30 mg/kg/day (HT-1080): 55%; IC50 [5]: 96 nM; IC50 [6]: > 50000 nM; IC50 [7]: 27 nM; bioavailability [8]: 34%; ED50 (Mus musculus [9]): 3.2 mg/kg; clearance [10]: 16.7 mL/min/kg; IC50 (Angiopoietin-1 receptor): 249 nM; IC50 [11]: > 50000 nM; IC50 [12]: > 30000 nM; half-life [13]: 0.66 h; Vd [14]: 0.94 L/kg; IC50 [15]: 24 nM; AUC [16]: 8.5 µM·h; IC50 [17]: > 50000 nM |
| Nc1noc2cccc(-c3ccc(NC(=O)Nc4ccc(F)c(Cl)c4)cc3)c12 | 36 | 22 |  |
| Cc1ccc(F)c(NC(=O)Nc2ccc(-c3ccc(C)c4onc(N)c34)cc2)c1 | 64 | 61 |  |
| Nc1ccc(-c2cccc3onc(N)c23)cc1 | 14800 |  |  |
| COc1cccc(NC(=O)Nc2ccc(-c3cccc4onc(N)c34)cc2)c1 | 4 |  | Activity [1]: inactive |
| Nc1noc2cccc(-c3ccc(NC(=O)Nc4ccccc4)cc3)c12 | 18 |  |  |
| Nc1noc2cccc(-c3ccc(NC(=O)Nc4cccc(C(F)(F)F)c4)cc3)c12 | 114 | 64 |  |
| Cc1ccc(NC(=O)Nc2ccc(-c3cccc4onc(N)c34)cc2)cc1 | 5 |  |  |
| Nc1noc2cccc(-c3ccc(NC(=O)Nc4ccc(F)cc4)cc3)c12 | 7 | 4 |  |
| Nc1noc2cccc(-c3ccc(NC(=O)Nc4cccc(Cl)c4)cc3)c12 | 10 | 6 |  |
| Cc1ccc(F)c(NC(=O)Nc2ccc(-c3cccc4onc(N)c34)cc2)c1 | 23 |  |  |
| Cc1ccc(F)c(NC(=O)Nc2ccc(-c3cccc4snc(N)c34)cc2)c1 | 790 | 1500 | IC50 [4]: 628 nM |
| Nc1noc2cccc(-c3ccc(NC(=O)Nc4cc(C(F)(F)F)ccc4F)cc3)c12 | 339 |  |  |
| COc1ccc(NC(=O)Nc2ccc(-c3cccc4onc(N)c34)cc2)cc1Cl |  | 8 | IC50 [18]: 36 nM; IC50 [4]: 8 nM |
| Cc1ccc(F)c(NC(=O)Nc2ccc(-c3ccc(OC(F)(F)F)c4onc(N)c34)cc2)c1 | 294 | 58 |  |
| COc1ccc(-c2ccc(NC(=O)Nc3cccc(Cl)c3)cc2)c2c(N)noc12 | 72 | 30 | inhibition in vivo at 30 mg/kg/day (HT-1080): 45%; Activity [5]: inactive; IC50 [6]: > 50000 nM; IC50 [7]: 40 nM; bioavailability [8]: 99%; clearance [19]: 15.5 mL/min/kg; Vd [20]: 1.2 L/kg; inhibition in vivo at 3 mg/kg (Mus musculus [21]): 90%; IC50 (Angiopoietin-1 receptor): 1000 nM; half-life [22]: 0.9 h; IC50 [11]: > 50000 nM; IC50 [15]: 38 nM; AUC [16]: 25.8 µM·h; IC50 [17]: > 50000 nM |

| Compound | IC50 [2] [nM] | IC50 [3] [nM] | other results |
| --- | --- | --- | --- |
| Cc1ccc(F)c(NC(=O)Nc2ccc(-c3ccc(CN4CCOCC4)c4onc(N)c34)cc2)c1 | 114 | 82 | IC50 [4]: 365 nM |
| Nc1noc2cccc(-c3ccc(NC(=O)Nc4ccc(F)c(C(F)(F)F)c4)cc3)c12 | 62 | 28 | inhibition in vivo at 30 mg/kg/day (HT-1080): 63%; bioavailability [8]: 100%; ED50 (Mus musculus [9]): 5.4 mg/kg; clearance [10]: 13.2 mL/min/kg; half-life [13]: 1.2 h; Vd [14]: 1.4 L/kg; AUC [16]: 33.1 µM·h |
| Nc1noc2cccc(-c3ccc(NC(=O)Nc4cccc([N+](=O)[O-])c4)cc3)c12 | 14 | 5 |  |
| Nc1noc2cccc(-c3ccc(NC(=O)Nc4cc(F)cc(F)c4)cc3)c12 | 14 |  | Activity [1]: inactive |
| Cc1ccc(F)c(NC(=O)Nc2ccc(-c3ccc(OCCN4CCOCC4)c4onc(N)c34)cc2)c1 | 71 | 34 |  |
| COc1ccc(-c2ccc(NC(=O)Nc3cccc(Br)c3)cc2)c2c(N)noc12 |  |  | bioavailability [8]: 71%; ED50 (Mus musculus [9]): 1 mg/kg; clearance [10]: 18.3 mL/min/kg; half-life [13]: 1.9 h; Vd [14]: 3.1 L/kg; AUC [16]: 13.8 µM·h |
| Cc1ccc(NC(=O)Nc2ccc(-c3cccc4onc(N)c34)cc2)cc1F | 12 |  | Activity [1]: inactive |
| Cc1cccc(NC(=O)Nc2ccc(-c3cccc4onc(N)c34)cc2)c1 | 12 | 14 |  |
| Cc1ccc(F)c(NC(=O)Nc2ccc(-c3ccc(F)c4onc(N)c34)cc2)c1 | 216 | 173 | IC50 [4]: 211 nM |
| Nc1noc2cccc(-c3ccc(NC(=O)Nc4ccccc4OC(F)(F)F)cc3)c12 | 166 | 60 |  |
| Nc1noc2cccc(-c3ccc(NC(=O)Nc4cccc(Br)c4)cc3)c12 | 7 |  | Activity [1]: inactive |
| Nc1noc2cccc(-c3ccc(NC(=O)Nc4ccc(OC(F)(F)F)cc4)cc3)c12 | 102 | 27 |  |
| NC(=O)Nc1ccc(-c2cccc3onc(N)c23)cc1 | 4440 |  |  |
| Nc1noc2cccc(-c3ccc(NC(=O)/C=C/c4cccc(C(F)(F)F)c4)cc3)c12 | > 12500 | 1400 | IC50 [4]: > 12500 nM |
| Cc1ccc(NC(=O)Nc2ccc(-c3cccc4onc(N)c34)cc2)cc1Cl | 50 |  |  |
| Nc1noc2cccc(-c3ccc(NC(=O)Nc4ccccc4F)cc3)c12 | 21 |  |  |
| Nc1noc2cccc(-c3ccc(NC(=O)Nc4cccc(F)c4)cc3)c12 | 11 |  | Activity [1]: inactive |
| Nc1noc2cccc(-c3ccc(NC(=O)c4ccccc4)cc3)c12 | > 12500 | > 12500 | IC50 [4]: > 12500 nM |
| Nc1noc2cccc(-c3ccc(NC(=O)Nc4ccccc4C(F)(F)F)cc3)c12 | 23400 |  |  |

Source: ChEMBL document CHEMBL1142358, “3-amino-benzo[d]isoxazoles as novel multitargeted inhibitors of receptor tyrosine kinases” (J Med Chem, 2008)
